How the values were obtained:
CD8+ T cells = assay: In vitro immunogenicity: T-cell priming with aAPCs loaded with peptide/MHC complexes and anti-CD28 antibody, pMHC multimer readout (Tables 19A, 19B); type: cell-based, human; conditions: for Wells positive [%]: in vitro immunogenicity of HLA class I peptides, pMHC multimer readout after priming of CD8+ T cells; for Share of positive wells (percent class): in vitro immunogenicity, healthy donors, three stimulation cycles
Description: In an aspect, the peptides are pre-screened for immunogenicity before being included in the warehouse. By way of example, and not limitation, the immunogenicity of the peptides included in the warehouse is determined by a method comprising in vitro T-cell priming through repeated stimulations of CD8+ T cells from healthy donors with artificial antigen presenting cells loaded with peptide/MHC complexes and anti-CD28 antibody.
In order to obtain information regarding the immunogenicity of the TUMAPs of the present invention, the inventors performed investigations using an in vitro T-cell priming assay based on repeated stimulations of CD8+ T cells with artificial antigen presenting cells (aAPCs) loaded with peptide/MHC complexes and anti-CD28 antibody.
In order to perform in vitro stimulations by artificial antigen presenting cells loaded with peptide-MHC complex (pMHC) and anti-CD28 antibody, the inventors first isolated CD8+ T cells from fresh HLA-A*02 leukapheresis products via positive selection using CD8 microbeads (Miltenyi Biotec, Bergisch-Gladbach, Germany) of healthy donors obtained from the University clinics Mannheim, Germany, after informed consent.
PBMCs and isolated CD8+ lymphocytes were incubated in T-cell medium (TCM) until use consisting of RPMI-Glutamax (Invitrogen, Karlsruhe, Germany) supplemented with 10% heat inactivated human AB serum (PAN-Biotech, Aidenbach, Germany), 100 U/ml Penicillin/100 μg/ml Streptomycin (Cambrex, Cologne, Germany), 1 mM sodium pyruvate (CC Pro, Oberdorla, Germany), 20 μg/ml Gentamycin (Cambrex). 2.5 ng/ml IL7 (PromoCell, Heidelberg, Germany) and 10 U/ml IL-2 (Novartis Pharma, Nurnberg, Germany) were also added to the TCM at this step.
Generation of pMHC/anti-CD28 coated beads, T-cell stimulations and readout was performed in a highly defined in vitro system using four different pMHC molecules per stimulation condition and 8 different pMHC molecules per readout condition.
The purified co-stimulatory mouse IgG2a anti human CD28 Ab 9.3 (Jung et al., 1987) was chemically biotinylated using Sulfo-N-hydroxysuccinimidobiotin as recommended by the manufacturer (Perbio, Bonn, Germany). Beads used were 5.6 μm diameter streptavidin coated polystyrene particles (Bangs Laboratories, Illinois, USA).
pMHC used for positive and negative control stimulations were A*0201/MLA-001 (peptide […] (SEQ ID NO. 303) from modified Melan-A/MART-1) and A*0201/DDX5-001 ([…] from DDX5, SEQ ID NO. 304), respectively.
800.000 beads/200 μl were coated in 96-well plates in the presence of 4×12.5 ng different biotin-pMHC, washed and 600 ng biotin anti-CD28 were added subsequently in a volume of 200 μl. Stimulations were initiated in 96-well plates by co-incubating […] CD8+ T cells with 2×10^5 washed coated beads in 200 μl TCM supplemented with 5 ng/ml IL-12 (PromoCell) for 3 days at 37° C. Half of the medium was then exchanged by fresh TCM supplemented with 80 U/ml IL-2 and incubating was continued for 4 days at 37° C. This stimulation cycle was performed for a total of three times. For the pMHC multimer readout using 8 different pMHC molecules per condition, a two-dimensional combinatorial coding approach was used as previously described (Andersen et al., 2012) with minor modifications encompassing coupling to 5 different fluorochromes. Finally, multimeric analyses were performed by staining the cells with Live/dead near IR dye (Invitrogen, Karlsruhe, Germany), CD8-FITC antibody clone SK1 (BD, Heidelberg, Germany) and fluorescent pMHC multimers. For analysis, a BD LSRII SORP cytometer equipped with appropriate lasers and filters was used. Peptide specific cells were calculated as percentage of total CD8+ cells. Evaluation of multimeric analysis was done using the FlowJo software (Tree Star, Oreg., USA). In vitro priming of specific multimer+ CD8+ lymphocytes was detected by comparing to negative control stimulations.

HLA-A*02 = assay: MHC binding assay, UV-ligand exchange with β2m ELISA, HLA-A*02 (Table 20); set-up: species or system human; conditions: binding to HLA-A*02 ranged by peptide exchange yield (UV-ligand exchange, β2m ELISA)
Procedure, shortened: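 Peptide–MHC complexes made by UV-ligand exchange of a UV-cleavable peptide, diluted 100-fold and captured on streptavidin plates. Stabilized complexes detected by HRP anti-β2m ELISA (1 h, 37° C, A450). Exchange yield derived against refolded HLA-A*02:01/MLA-001 monomer standards (15-500 ng/ml).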

Row | Substance | Wells positive [%] (CD8+ T cells) | Peptide exchange (HLA-A*02) | Share of positive wells (percent class) (CD8+ T cells)
1 | 27 (RLMEENWNA; listed as Homo sapiens) [compound 27] | +++ (50%-69% = +++) | +++ (50%-75% = +++) | 
2 | 35 (FLLPFSTVYL; listed as Homo sapiens) [compound 35] | + (<20% = +) | +++ (50%-75% = +++) | 
3 | 11 (ALSPSYLTV; listed as Homo sapiens) [compound 11] | ++ (20%-49% = ++) | +++ (50%-75% = +++) | 
4 | 20 (GLSQITNQL; listed as Homo sapiens) [compound 20] | ++ (20%-49% = ++) | +++ (50%-75% = +++) | 
5 | 18 (ILLDLTDNRL; listed as Homo sapiens) [compound 18] | + (<20% = +) | +++ (50%-75% = +++) | 
6 | 247 (ALYEGYATV; listed as Homo sapiens) [compound 247] | ++ (20%-49% = ++) | +++ (50%-75% = +++) | 
7 | 296 (TYVDSSHTI; listed as Homo sapiens) [compound 296] |  |  | + (<20% = +)
8 | 29 (YLLDPSITL; listed as Homo sapiens) [compound 29] | + (<20% = +) | +++ (50%-75% = +++) | 
9 | 6 (ALFDSLRHV; listed as Homo sapiens) [compound 6] | ++ (20%-49% = ++) | +++ (50%-75% = +++) | 
10 | 1 (LLYPEPWSV; listed as Homo sapiens) [compound 1] | ++ (20%-49% = ++) | ++++ (≧75% = ++++) | 
11 | 301 (AYKPGALTF; listed as Homo sapiens) [compound 301] |  |  | + (<20% = +)
12 | 235 (KIIDFLSAL; listed as Homo sapiens) [compound 235] | +++ (50%-69% = +++) | +++ (50%-75% = +++) | 
13 | 290 (KIVDFSYSV; listed as Homo sapiens) [compound 290] |  |  | ++ (20%-49% = ++)
14 | 233 (HLFDAFVSV; listed as Homo sapiens) [compound 233] | ++ (20%-49% = ++) | +++ (50%-75% = +++) | 
15 | 96 (LLVSHLYLV; listed as Homo sapiens) [compound 96] | ++ (20%-49% = ++) | ++ (20%-49% = ++) | 
16 | 293 (FLVDGSWSI; listed as Homo sapiens) [compound 293] |  |  | + (<20% = +)
17 | 292 (GMMTAILGV; listed as Homo sapiens) [compound 292] |  |  | + (<20% = +)
18 | 251 (ALSVLRLAL; listed as Homo sapiens) [compound 251] | ++ (20%-49% = ++) | +++ (50%-75% = +++) | 
19 | 248 (YLDRFLAGV; listed as Homo sapiens) [compound 248] | ++ (20%-49% = ++) | ++++ (≧75% = ++++) | 
20 | 4 (KLMPGTYTL; listed as Homo sapiens) [compound 4] | + (<20% = +) | ++++ (≧75% = ++++) | 
21 | 230 (KLQNIMMLL; listed as Homo sapiens) [compound 230] | ++++ (≧70% = ++++) | ++ (20%-49% = ++) | 
22 | 291 (KLDETGNSL; listed as Homo sapiens) [compound 291] |  |  | + (<20% = +)

Row | Substance | Wells positive [%] (CD8+ T cells) | Peptide exchange (HLA-A*02) | Share of positive wells (percent class) (CD8+ T cells)
23 | 229 (AILAHLNTV; listed as Homo sapiens) [compound 229] | ++ (20%-49% = ++) | ++++ (≧75% = ++++) | 
24 | 298 (RYLEGTSCI; listed as Homo sapiens) [compound 298] |  |  | + (<20% = +)
25 | 7 (ILDHEVPSL; listed as Homo sapiens) [compound 7] | ++ (20%-49% = ++) | +++ (50%-75% = +++) | 
26 | 151 (SVLDSTAKV; listed as Homo sapiens) [compound 151] | ++ (20%-49% = ++) | ++ (20%-49% = ++) | 
27 | 141 (FLDKVLVAA; listed as Homo sapiens) [compound 141] | + (<20% = +) | +++ (50%-75% = +++) | 
28 | 92 (GLLFSLRSV; listed as Homo sapiens) [compound 92] | ++ (20%-49% = ++) | ++++ (≧75% = ++++) | 
29 | 5 (GIVAHIQEV; listed as Homo sapiens) [compound 5] | + (<20% = +) | +++ (50%-75% = +++) | 
30 | 14 (ILAKDLFEI; listed as Homo sapiens) [compound 14] | ++ (20%-49% = ++) | ++++ (≧75% = ++++) | 
31 | 232 (KIFPAALQLV; listed as Homo sapiens) [compound 232] | ++ (20%-49% = ++) | +++ (50%-75% = +++) | 
32 | 138 (ALLAKILQI; listed as Homo sapiens) [compound 138] | ++ (20%-49% = ++) | +++ (50%-75% = +++) | 
33 | 31 (TITETTVEV; listed as Homo sapiens) [compound 31] | + (<20% = +) | +++ (50%-75% = +++) | 
34 | 26 (ALQEELTEL; listed as Homo sapiens) [compound 26] | + (<20% = +) | +++ (50%-75% = +++) | 
35 | 12 (GLLPLLHRA; listed as Homo sapiens) [compound 12] | ++++ (≧70% = ++++) | ++++ (≧75% = ++++) | 
36 | 149 (ILNTHITEL; listed as Homo sapiens) [compound 149] | + (<20% = +) | +++ (50%-75% = +++) | 
37 | 144 (ALLAFFPGL; listed as Homo sapiens) [compound 144] | +++ (50%-69% = +++) | +++ (50%-75% = +++) | 
38 | 90 (FLQDLEQRL; listed as Homo sapiens) [compound 90] | + (<20% = +) | +++ (50%-75% = +++) | 
39 | 150 (VLYDRPLKI; listed as Homo sapiens) [compound 150] | ++ (20%-49% = ++) | +++ (50%-75% = +++) | 
40 | 300 (AYVLRLETL; listed as Homo sapiens) [compound 300] |  |  | + (<20% = +)
41 | 297 (PFLQASPHF; listed as Homo sapiens) [compound 297] |  |  | ++ (20%-49% = ++)
42 | 23 (SLFSDEFKV; listed as Homo sapiens) [compound 23] | ++++ (≧70% = ++++) | +++ (50%-75% = +++) | 
43 | 249 (GLCERLVSL; listed as Homo sapiens) [compound 249] | + (<20% = +) | ++++ (≧75% = ++++) | 
44 | 295 (YYPGVILGF; listed as Homo sapiens) [compound 295] |  |  | ++ (20%-49% = ++)

— patent US20170189504A1, “NOVEL PEPTIDES AND COMBINATION OF PEPTIDES FOR USE IN IMMUNOTHERAPY AGAINST VARIOUS CANCERS” (immatics biotechnologies GmbH, priority 2015, published 2017)
